Test results as given in patent publication US9840495B2, “Oxindole derivatives carrying a piperidyl-substituted azetidinyl substituent and use thereof for treating vasopressine-related diseases” (AbbVie Deutschland GmbH & Co. KG, priority 2013, dated 2017).

Experiments:
[1] = target: human vasopressin V1a receptor (Homo sapiens, UniProt P37288); assay: Vasopressin V1a receptor binding assay (125I-AVP displacement, CHO-K1 membranes); conditions: selectivity quotient, human V1a vs human V1b receptor binding
Sequence of human vasopressin V1a receptor (P37288 whole entry): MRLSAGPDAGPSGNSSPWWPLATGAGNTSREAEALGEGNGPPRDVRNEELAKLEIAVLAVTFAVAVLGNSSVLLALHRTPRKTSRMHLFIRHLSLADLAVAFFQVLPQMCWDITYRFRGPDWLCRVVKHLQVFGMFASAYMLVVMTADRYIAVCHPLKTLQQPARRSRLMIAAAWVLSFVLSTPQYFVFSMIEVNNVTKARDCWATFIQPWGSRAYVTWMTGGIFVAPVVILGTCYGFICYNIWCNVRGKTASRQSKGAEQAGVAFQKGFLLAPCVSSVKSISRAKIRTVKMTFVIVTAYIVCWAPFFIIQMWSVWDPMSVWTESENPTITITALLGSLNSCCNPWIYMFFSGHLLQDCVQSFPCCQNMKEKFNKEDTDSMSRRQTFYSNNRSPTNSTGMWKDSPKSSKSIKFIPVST

[2] = target: T1, human vasopressin V1b receptor (Homo sapiens, UniProt P47901); assay: biochemical
T1 sequence (P47901 1-424): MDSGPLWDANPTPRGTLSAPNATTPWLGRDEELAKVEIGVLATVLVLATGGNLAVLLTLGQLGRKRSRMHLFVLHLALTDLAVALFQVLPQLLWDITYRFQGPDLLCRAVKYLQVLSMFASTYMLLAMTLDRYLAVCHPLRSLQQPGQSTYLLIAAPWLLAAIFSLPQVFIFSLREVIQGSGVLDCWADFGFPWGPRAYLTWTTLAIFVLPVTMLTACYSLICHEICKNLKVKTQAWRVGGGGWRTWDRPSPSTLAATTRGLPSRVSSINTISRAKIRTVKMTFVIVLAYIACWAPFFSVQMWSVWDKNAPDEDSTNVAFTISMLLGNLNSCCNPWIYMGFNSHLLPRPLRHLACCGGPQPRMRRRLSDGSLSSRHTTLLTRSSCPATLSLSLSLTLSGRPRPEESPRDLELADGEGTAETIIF

Compound | Ki(h-V1a)/Ki(h-V1b) [1] | Ki [2] [nM]
CCOc1ncccc1[C@]1(NC(=O)N2CC(N3CCC(N4CCOCC4)CC3)C2)C(=O)N(S(=O)(=O)c2ccc(OC)cc2OC)c2cc(F)c(C#N)cc21 [Example 9, (S)—N-(5-Cyano-1-((2,4-dimethoxyphenyl)sulfonyl)-3-(2-ethoxypyridin-3-yl)-6-fluoro-2-oxoindolin-3-yl)-3-(4-morpholinopiperidin-1-yl)azetidine-1-carboxamide] | ++ (25-75) | < 1
COc1ccc(S(=O)(=O)N2C(=O)[C@@](NC(=O)N3CC(N4CCC(N5CCOCC5)CC4)C3)(c3cccnc3OC)c3cc(C#N)ccc32)c(OC)c1 [Example 3, (S)—N-(5-Cyano-1-((2,4-dimethoxyphenyl)sulfonyl)-3-(2-methoxypyridin-3-yl)-2-oxoindolin-3-yl)-3-(4-morpholinopiperidin-1-yl)azetidine-1-carboxamide] | +++ (>75) | < 1
CCOc1ncccc1[C@]1(NC(=O)N2CC(N3CCC(N4CCOCC4)CC3)C2)C(=O)N(S(=O)(=O)c2ccc(OC)cc2OC)c2ccc(C#N)cc21 [Example 1, (S)—N-(5-cyano-1-((2,4-dimethoxyphenyl)sulfonyl)-3-(2-ethoxypyridin-3-yl)-2-oxoindolin-3-yl)-3-(4-morpholinopiperidin-1-yl)azetidine-1-carboxamide] | +++ (>75) | < 1
COc1ccc(S(=O)(=O)N2C(=O)[C@@](NC(=O)N3CC(N4CCC(N(C)C5COC5)CC4)C3)(c3cc(OC)ccc3OC)c3cc(C#N)ccc32)c(OC)c1 [Example 46, (S)—N-(5-Cyano-3-(2,5-dimethoxyphenyl)-1-((2,4-dimethoxyphenyl)sulfonyl)-2-oxoindolin-3-yl)-3-(4-(methyl(oxetan-3-yl)amino)piperidin-1-yl)azetidine-1-carboxamide] | ++ (25-75) | < 1
CCOc1ncccc1[C@]1(NC(=O)N2CC(N3CCC(N4CC(O)C4)CC3)C2)C(=O)N(S(=O)(=O)c2ccc(OC)cc2OC)c2ccc(C#N)cc21 [Example 43, (S)—N-(5-Cyano-1-((2,4-dimethoxyphenyl)sulfonyl)-3-(2-ethoxypyridin-3-yl)-2-oxoindolin-3-yl)-3-(4-(3-hydroxyazetidin-1-yl)piperidin-1-yl)azetidine-1-carboxamide] | +++ (>75) | 1 to 10
CCOc1ncccc1[C@]1(NC(=O)N2CC(N3CCC(N4CCC(O)CC4)CC3)C2)C(=O)N(S(=O)(=O)c2ccc(OC)cc2OC)c2ccc(C#N)cc21 [Example 44, (S)—N-(5-Cyano-1-((2,4-dimethoxyphenyl)sulfonyl)-3-(2-ethoxypyridin-3-yl)-2-oxoindolin-3-yl)-3-(4-hydroxy-[1,4′-bipiperidin]-1′-yl)azetidine-1-carboxamide] | +++ (>75) | < 1
